Earlier results on 19 compounds are cited in patent publication US12378302B2, “Fusion molecules and uses thereof” (Foundation Medicine, Inc., priority 2012, dated 2025).

Molecules are shown by their SMILES. pEC50, pIC50: −log10 of the molar value.

One may read the pEC50 as the negative decadic logarithm of the EC50, by convention in mol/L.

The test system of data set [1] is HCV replicon genotypes and the JFH-1 genotype 2a infectious virus (HCV NS5A). The conditions noted are these: cell culture.
In a further data set the test system is MEK1/2. Particulars: read-out: IC50 against MEK1/2.
Data set [2] concerns cytokine production such as IL-1, TNF and IL-6. The conditions noted are these: clinical trials.
For another data set, the system named is MEK. The conditions noted are these: read-out: IC50 against MEK.
Data set [3] relates to MEK1, MEK2, ERK2, and JNK2.
The target in the next data set is CSF-1R (Homo sapiens, UniProt P07333). Particulars: read-out: IC50 against CSF-1R.
Chain of CSF-1R (P07333 20-972, species assumed): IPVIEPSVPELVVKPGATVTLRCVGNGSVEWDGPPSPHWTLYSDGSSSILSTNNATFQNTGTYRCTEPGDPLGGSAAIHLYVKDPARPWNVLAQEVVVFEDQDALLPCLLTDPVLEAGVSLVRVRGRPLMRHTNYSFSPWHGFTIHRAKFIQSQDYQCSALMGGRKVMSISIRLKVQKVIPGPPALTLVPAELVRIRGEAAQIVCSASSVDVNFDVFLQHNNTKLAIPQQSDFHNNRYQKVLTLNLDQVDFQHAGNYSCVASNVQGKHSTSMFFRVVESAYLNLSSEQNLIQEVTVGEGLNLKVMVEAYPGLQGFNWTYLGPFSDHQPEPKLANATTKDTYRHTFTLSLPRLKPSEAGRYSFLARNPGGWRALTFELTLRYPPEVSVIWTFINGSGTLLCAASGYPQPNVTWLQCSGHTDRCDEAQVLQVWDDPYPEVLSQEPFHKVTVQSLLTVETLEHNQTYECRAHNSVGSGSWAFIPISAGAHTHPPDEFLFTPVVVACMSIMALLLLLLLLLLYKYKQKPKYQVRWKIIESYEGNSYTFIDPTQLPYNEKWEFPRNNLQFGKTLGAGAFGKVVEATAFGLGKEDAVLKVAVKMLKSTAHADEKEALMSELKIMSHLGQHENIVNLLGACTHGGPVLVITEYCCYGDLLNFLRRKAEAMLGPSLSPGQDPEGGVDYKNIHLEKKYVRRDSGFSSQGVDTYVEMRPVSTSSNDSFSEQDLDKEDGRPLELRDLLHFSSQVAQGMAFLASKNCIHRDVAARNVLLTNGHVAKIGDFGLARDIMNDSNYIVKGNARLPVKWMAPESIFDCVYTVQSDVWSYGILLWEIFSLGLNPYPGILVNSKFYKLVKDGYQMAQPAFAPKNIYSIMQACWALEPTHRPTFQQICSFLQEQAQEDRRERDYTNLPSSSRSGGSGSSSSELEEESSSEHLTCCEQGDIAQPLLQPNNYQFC
In a further data set the target is MEK1 (Homo sapiens, UniProt Q02750). Particulars: read-out: IC50 against MEK1.
Chain of MEK1 (Q02750 whole entry, species assumed): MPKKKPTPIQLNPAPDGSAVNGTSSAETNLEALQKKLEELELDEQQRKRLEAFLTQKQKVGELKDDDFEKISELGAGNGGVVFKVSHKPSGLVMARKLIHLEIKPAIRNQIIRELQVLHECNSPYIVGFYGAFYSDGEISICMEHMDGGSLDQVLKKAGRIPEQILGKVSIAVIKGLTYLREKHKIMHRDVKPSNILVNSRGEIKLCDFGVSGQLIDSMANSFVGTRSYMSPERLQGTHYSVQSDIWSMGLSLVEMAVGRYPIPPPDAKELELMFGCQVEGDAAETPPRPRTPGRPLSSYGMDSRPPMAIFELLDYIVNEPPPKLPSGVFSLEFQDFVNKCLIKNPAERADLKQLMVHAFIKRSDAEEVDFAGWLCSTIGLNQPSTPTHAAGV
Data set [4] deals with Erk1, MKK3, MKK4, c-JUN, PKC, PKA, or CamKII.
A further data set addresses MEK2 (Homo sapiens, UniProt P36507). The conditions noted are these: read-out: IC50 against MEK2.
The target of the next data set is ALK (Homo sapiens, UniProt Q9UM73). Particulars: read-out: IC50 ALK.
Chain of ALK (Q9UM73 19-1620): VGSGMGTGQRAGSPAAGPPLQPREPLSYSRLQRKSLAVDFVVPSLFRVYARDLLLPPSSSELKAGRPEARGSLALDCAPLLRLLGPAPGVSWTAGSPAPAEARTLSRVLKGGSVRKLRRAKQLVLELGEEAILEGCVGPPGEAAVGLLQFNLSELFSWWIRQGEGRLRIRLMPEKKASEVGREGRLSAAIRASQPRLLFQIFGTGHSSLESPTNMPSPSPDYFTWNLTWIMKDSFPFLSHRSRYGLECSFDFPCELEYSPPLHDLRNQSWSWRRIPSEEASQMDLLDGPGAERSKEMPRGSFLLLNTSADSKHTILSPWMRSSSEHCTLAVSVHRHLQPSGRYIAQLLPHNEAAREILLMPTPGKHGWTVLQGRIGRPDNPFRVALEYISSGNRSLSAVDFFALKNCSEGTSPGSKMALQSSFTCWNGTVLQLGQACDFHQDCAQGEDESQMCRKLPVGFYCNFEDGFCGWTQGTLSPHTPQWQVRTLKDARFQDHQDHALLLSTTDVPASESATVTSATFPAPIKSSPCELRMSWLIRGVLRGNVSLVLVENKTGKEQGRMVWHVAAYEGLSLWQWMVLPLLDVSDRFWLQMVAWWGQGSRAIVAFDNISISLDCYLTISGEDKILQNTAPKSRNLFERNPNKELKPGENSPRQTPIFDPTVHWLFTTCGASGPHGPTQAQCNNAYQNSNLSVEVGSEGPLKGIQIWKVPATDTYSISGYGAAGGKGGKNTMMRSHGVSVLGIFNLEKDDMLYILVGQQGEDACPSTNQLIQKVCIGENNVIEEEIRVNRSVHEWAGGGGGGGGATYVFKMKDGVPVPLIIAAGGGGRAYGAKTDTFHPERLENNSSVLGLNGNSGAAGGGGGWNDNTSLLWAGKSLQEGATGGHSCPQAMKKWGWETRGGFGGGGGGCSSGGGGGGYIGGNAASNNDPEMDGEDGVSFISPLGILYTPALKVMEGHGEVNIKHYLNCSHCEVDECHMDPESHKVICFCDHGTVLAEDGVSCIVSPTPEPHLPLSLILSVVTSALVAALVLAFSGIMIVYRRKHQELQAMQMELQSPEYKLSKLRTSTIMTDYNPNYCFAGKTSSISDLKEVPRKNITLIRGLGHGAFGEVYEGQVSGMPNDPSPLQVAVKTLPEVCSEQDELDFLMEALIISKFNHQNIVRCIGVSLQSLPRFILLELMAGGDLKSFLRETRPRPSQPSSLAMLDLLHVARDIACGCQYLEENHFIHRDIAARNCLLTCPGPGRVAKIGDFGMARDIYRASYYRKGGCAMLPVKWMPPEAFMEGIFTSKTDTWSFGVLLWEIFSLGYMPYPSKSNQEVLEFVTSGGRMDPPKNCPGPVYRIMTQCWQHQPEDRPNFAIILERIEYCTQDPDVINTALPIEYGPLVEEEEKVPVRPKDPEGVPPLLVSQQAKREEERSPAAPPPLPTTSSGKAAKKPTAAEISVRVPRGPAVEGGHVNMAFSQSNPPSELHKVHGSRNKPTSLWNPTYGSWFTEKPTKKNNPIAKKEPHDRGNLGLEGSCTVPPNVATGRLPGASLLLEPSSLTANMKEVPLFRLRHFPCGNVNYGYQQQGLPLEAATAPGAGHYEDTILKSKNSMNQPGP
For data set [5], the system named is Abl1, AKT3, c-RAF, CamK1, CDK2, c-Met.
The subject of a further data set is CDK1/2/3/4/7/9. The conditions noted are these: range over the CDKs.
Data set [6] addresses c-Met (Homo sapiens, UniProt P08581). The conditions noted are these: read-out: IC50 against c-Met (WT/mutants).
The test system of data set [7] is c-Met.
The subject of a further data set is PDGFR. Particulars: read-out: IC50 against PDGFR.
The target in another data set is EGFR (Homo sapiens, UniProt P00533).
Chain of EGFR (P00533 25-1210): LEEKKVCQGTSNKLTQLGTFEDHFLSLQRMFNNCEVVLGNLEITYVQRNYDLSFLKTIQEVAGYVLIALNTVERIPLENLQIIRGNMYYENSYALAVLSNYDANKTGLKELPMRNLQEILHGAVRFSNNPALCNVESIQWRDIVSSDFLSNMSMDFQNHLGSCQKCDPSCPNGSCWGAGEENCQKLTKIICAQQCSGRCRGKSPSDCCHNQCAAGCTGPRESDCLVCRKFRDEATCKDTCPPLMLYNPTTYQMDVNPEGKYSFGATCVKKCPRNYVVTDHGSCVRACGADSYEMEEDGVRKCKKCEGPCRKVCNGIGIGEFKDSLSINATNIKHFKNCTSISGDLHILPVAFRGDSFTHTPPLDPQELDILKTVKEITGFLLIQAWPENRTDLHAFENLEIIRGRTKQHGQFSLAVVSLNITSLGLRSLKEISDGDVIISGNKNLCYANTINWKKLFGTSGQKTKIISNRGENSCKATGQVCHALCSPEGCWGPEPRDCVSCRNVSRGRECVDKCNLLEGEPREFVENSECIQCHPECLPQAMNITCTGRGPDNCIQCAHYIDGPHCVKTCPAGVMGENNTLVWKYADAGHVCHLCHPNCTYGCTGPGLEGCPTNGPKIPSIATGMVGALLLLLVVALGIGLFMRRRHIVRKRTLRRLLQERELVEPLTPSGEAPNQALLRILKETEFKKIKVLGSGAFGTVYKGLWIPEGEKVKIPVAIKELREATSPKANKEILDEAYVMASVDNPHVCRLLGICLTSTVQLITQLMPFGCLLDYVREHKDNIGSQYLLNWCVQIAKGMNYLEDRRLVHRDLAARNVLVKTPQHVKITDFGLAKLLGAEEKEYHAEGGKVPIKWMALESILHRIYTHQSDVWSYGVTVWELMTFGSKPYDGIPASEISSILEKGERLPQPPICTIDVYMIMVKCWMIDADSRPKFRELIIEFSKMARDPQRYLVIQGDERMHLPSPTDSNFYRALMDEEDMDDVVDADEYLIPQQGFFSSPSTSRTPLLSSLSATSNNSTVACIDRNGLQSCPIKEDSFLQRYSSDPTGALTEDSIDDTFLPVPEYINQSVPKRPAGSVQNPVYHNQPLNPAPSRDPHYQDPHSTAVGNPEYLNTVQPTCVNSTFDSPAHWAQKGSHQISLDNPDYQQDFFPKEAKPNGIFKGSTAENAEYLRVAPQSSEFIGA
The test system of data set [8] is CDK1/2/5, EGFR, FGFR, PDGFR, and InsR.
Data set [9] deals with Flk-1 and FGFR1 trans-phosphorylation.
Data set [10] has as its system IGF-1R, Met, Src, Lck, Zap70, Abl and CDK2.

Chain of MEK2 (P36507 whole entry, species assumed): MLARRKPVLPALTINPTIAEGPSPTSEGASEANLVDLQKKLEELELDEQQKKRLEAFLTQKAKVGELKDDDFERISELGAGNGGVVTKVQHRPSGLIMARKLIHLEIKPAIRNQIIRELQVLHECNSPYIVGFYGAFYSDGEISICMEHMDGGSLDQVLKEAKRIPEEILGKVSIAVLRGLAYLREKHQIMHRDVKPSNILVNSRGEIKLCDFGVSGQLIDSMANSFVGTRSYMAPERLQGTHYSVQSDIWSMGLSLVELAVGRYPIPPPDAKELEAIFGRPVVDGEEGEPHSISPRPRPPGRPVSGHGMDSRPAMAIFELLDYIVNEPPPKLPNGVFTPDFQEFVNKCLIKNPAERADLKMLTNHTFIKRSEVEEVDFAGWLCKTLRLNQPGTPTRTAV

Consider `COC(=O)N[C@H](C(=O)N1CCC[C@H]1c1ncc(-c2ccc(-c3ccc(-c4cnc([C@@H]5CCCN5C(=O)[C@@H](NC(=O)OC)C(C)C)[nH]4)cc3)cc2)[nH]1)C(C)C` [BMS-790052, Carbamic acid, N,N′-[[1,1′-biphenyl]-4,4′-diylbis[1H-imidazole-5,2-diyl-(2S)-2,1-pyrrolidinediyl[(1S)-1-(1-methylethyl)-2-oxo-2,1-ethanediyl]]]bis-,C,C′-dimethyl ester], for which the pEC50 in [1] is 10.30 to 11.05.

In the case of `Cn1cnc2c(F)c(Nc3ccc(Br)cc3F)c(C(=O)NOCCO)cc21` [ARRY-162, 5-((4-bromo-2-fluorophenyl)amino)-4-fluoro-N-(2-hydroxyethoxy)-1-methyl-1H-benzo[d]imidazole-6-carboxamide], the pIC50 is 7.92 with MEK1/2 and 7.96 in the data set with cellular pERK. Besides, the “Ex vivo effect on cytokine production such as IL-1, TNF and IL-6” value in data set [2] was “inhibition”.

Regarding `COc1cccc(-c2cc(=O)c3ccccc3o2)c1N` [PD98059, 2-(2-amino-3-methoxyphenyl)-4H-chromen-4-one], in the data set with ERK1 or ERK2, the “Direct inhibition of ERK1 or ERK2” value is recorded as “does not directly inhibit”. Also, the pIC50 in the data set on MEK was […].

For `C=CCc1ccc(O)c(-c2ccc(O)c(CC=C)c2)c1` [Honokiol, 2-(4-hydroxy-3-prop-2-enyl-phenyl)-4-prop-2-enyl-phenol], in the data set with ERK1/2 phosphorylation, the “Effect on ERK1/2 phosphorylation” value is given as “promotes”. Moreover, the “Effect on Akt-phosphorylation” value in the data set with Akt-phosphorylation is on record as “inhibits”.

With `CC(=O)Nc1cccc(-n2c(=O)n(C3CC3)c(=O)c3c(Nc4ccc(I)cc4F)n(C)c(=O)c(C)c32)c1` [Trametinib, N-(3-{3-Cyclopropyl-5-[(2-fluoro-4-iodophenyl)amino]-6,8-dimethyl-2,4,7-trioxo-3,4,6,7-tetrahydropyrido[4,3-d]pyrimidin-1(2H)-yl}phenyl)acetamide], the “Kinase activities of c-Raf, B-Raf, ERK1/2” value on c-Raf, B-Raf, ERK1/2 is reported as “does not inhibit”.

On to `CN(C)Cc1cccc(N/C(=C2\C(=O)Nc3cc(C(=O)N(C)C)ccc32)c2ccccc2)c1` [BIX 02189, (Z)-3-((3-((dimethylamino)methyl)phenylamino)(phenyl)methylene)-N,N-dimethyl-2-oxoindoline-6-carboxamide], for which, in data set [3], the “Inhibition of closely related kinases MEK1, MEK2, ERK2, and JNK2” value was “does not inhibit”.

As for `O=C(Nc1ccc(OC(F)(F)F)cc1)c1sccc1NCc1ccnc2ccccc12` [OSI-930], the “Potency to Flt-1, c-Raf and Lck” value in the data set on Flt-1, c-Raf and Lck is given as “also potent”. Also, the “Activity against PDGFRα/β, Flt-3 and Abl” value with PDGFRα/β, Flt-3 and Abl is “low activity”. Also, on CSF-1R, the pIC50 is 7.82.

Take `N#C/C(=C(/N)Sc1ccc(N)cc1)c1ccccc1C(F)(F)F` [SL327, (Z)-3-amino-3-(4-aminophenylthio)-2-(2-(trifluoromethyl)phenyl) acrylonitrile]: the pIC50 at MEK1 is around 6.74; at MEK2 it was around 6.66. Besides, the “Activity towards Erk1, MKK3, MKK4, c-JUN, PKC, PKA, or CamKII” value in data set [4] is on record as “no activity”.

As to `CNC(=O)c1c(F)cccc1Nc1nc(Nc2cc3c(cc2OC)CCN3C(=O)CN(C)C)nc2[nH]ccc12` [GSK1838705A, 2-(2-(1-(2-(dimethylamino)acetyl)-5-methoxyindolin-6-ylamino)-7H-pyrrolo[2,3-d]pyrimidin-4-ylamino)-6-fluoro-N-methylbenzamide], the “activity to other protein kinases” value with other protein kinases is “little activity”.

As to `O=C(NC[C@H](O)CO)c1ccncc1Nc1ccc(I)cc1F` [AS-703026, (S)—N-(2,3-dihydroxypropyl)-3-(2-fluoro-4-iodophenylamino) isonicotinamide], in the data set on MM cell lines, the pIC50 is 5.70 to 8.30.

For `COc1cc(N2CCC(N)CC2)ccc1Nc1ncc(Cl)c(-c2c[nH]c3ccccc23)n1` [AZD-3463, 2-Pyrimidinamine, N-[4-(4-amino-1-piperidinyl)-2-methoxyphenyl]-5-chloro-4-(1H-indol-3-yl)-], on ALK, the pIC50 is 7.66.

`COc1cc(CCc2cc(NC(=O)c3ccc(N4C[C@@H](C)N[C@@H](C)C4)cc3)n[nH]2)cc(OC)c1` [AZD4547, N-(5-(3,5-dimethoxyphenethyl)-1H-pyrazol-3-yl)-4-((3S,5R)-3,5-dimethylpiperazin-1-yl)benzamide]: the “Activity against FGFR4, VEGFR2 (KDR)” value in the data set on FGFR4, VEGFR2 (KDR) is reported as “weaker activity”.

For the compound `Cn1c(=O)c(F)c(Nc2ccc(I)cc2F)c2c(=O)n(C[C@@H](O)CO)cnc21` [TAK-733, (R)-3-(2,3-dihydroxypropyl)-6-fluoro-5-(2-fluoro-4-iodophenylamino)-8-methylpyrido[2,3-d]pyrimidine-4,7(3H,8H)-dione], on MEK1, the pIC50 was around 8.49. The “Activity to Abl1, AKT3, c-RAF, CamK1, CDK2, c-Met” value in [5] was “inactive”.

Turning to `Cc1cc2c(F)c(Oc3ncnn4cc(OC[C@@H](C)O)c(C)c34)ccc2[nH]1` [Brivanib, (R)-1-(4-(4-fluoro-2-methyl-1H-indol-5-yloxy)-5-methylpyrrolo[1,2-f][1,2,4]triazin-6-yloxy)propan-2-ol], the “Potency against VEGFR-1 and FGFR-1” value with VEGFR-1 and FGFR-1 is “moderate potency”.

`C[C@@H](O)[C@@H](C)Oc1nc(Nc2ccc(S(=N)(=O)C3CC3)cc2)ncc1C(F)(F)F` (stereo partly drawn) [BAY 1000394, 2-Butanol, 3-[[2-[[4-[[S(R)]—S-cyclopropylsulfonimidoyl]phenyl]amino]-5-(trifluoromethyl)-4-pyrimidinyl]oxy]-, (2R,3R)—]: in the data set with CDK1/2/3/4/7/9, the pIC50 is 7.60 to 8.30.

Turning to `CN(C[C@@H]1COCCO1)S(=O)(=O)Nc1ccc2ccc3ncc(-c4cnn(C)c4)cc3c(=O)c2c1` [MK-2461, N-((2R)-1,4-Dioxan-2-ylmethyl)-N-methyl-N′-[3-(1-methyl-1H-pyrazol-4-yl)-5-oxo-5H-benzo[4,5]cyclohepta[1,2-b]pyridin-7-yl]sulfamide], in the data set on Ron, Flt1, the “Potency to Ron, Flt1” value is recorded as “less potent”. Besides, on c-Met [6], the pIC50 was 8.60 to 9.40. The “Selectivity of c-Met targets versus FGFR1, FGFR2, FGFR3, PDGFRβ, KDR, Flt3, Flt4, TrkA, and TrkB” value in the data set on c-Met [7] was 8- to 30 fold.

Take `COc1cc2ncc(-c3ccccc3)nc2cc1OC` [Tyrphostin AG 1296, Quinoxaline, 6,7-dimethoxy-2-phenyl-]: the pIC50 in the data set with PDGFR was 6.30 to 6.52. For the same compound, at EGFR, the “Activity against EGFR” value is recorded as “no activity”.

Consider `CC(=O)c1c(C)c2cnc(Nc3ccc(N4CCNCC4)cn3)nc2n(C2CCCC2)c1=O` [PD0332991 Isethionate, Ethanesulfonic acid, 2-hydroxy-, compd. with 6-acetyl-8-cyclopentyl-5-methyl-2-[[5-(1-piperazinyl)-2-pyridinyl]amino]pyrido[2,3-d]pyrimidin-7(8H)-one (1:1)], for which, in data set [8], the “activity against CDK1/2/5, EGFR, FGFR, PDGFR, and InsR” value was “no activity”.

Consider `Cc1[nH]c(/C=C2\C(=O)Nc3ccccc32)c(C)c1CCC(=O)O` [SU6668, (Z)-3-(2,4-dimethyl-5-((2-oxoindolin-3-ylidene)methyl)-1H-pyrrol-3-yl)propanoic acid], for which the “Inhibition of Flk-1 and FGFR1 trans-phosphorylation” value in data set [9] is given as “strongly inhibits”. For the same compound, the “Activity against IGF-1R, Met, Src, Lck, Zap70, Abl and CDK2” value in data set [10] was “little activity”.
